Patent US8063071B2 (GlaxoSmithKline, LLC, priority 2007, dated 2011)
Counter-ions that a name gives are not always drawn.

How the values were obtained:
[1] = test system: human monocyte stimulated cytokine production (TNF-α); test: Monocyte assay (LPS-stimulated TNF-α production); format: cell-based; conditions: for inhibition at 0.3 µM: read-out: inhibition at 300 nM in the monocyte assay; for IC50: 24 h, 200 ng/mL LPS, TNF-α by ELISA
Procedure, shortened: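 Human CD14+ monocytes were purified from blood and plated at 1×10^6 cells/mL in RPMI 1640 with 10% FBS. Compound was added 30 min before stimulation with 200 ng/mL LPS (0.1% DMSO final), followed by 24 hrs at 37 C. Supernatant TNF-α was measured by ELISA, and viability by trypan blue exclusion.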

[2] = biological target: T1, Recombinant human IKKβ (residues 1-737) (Homo sapiens, UniProt O14920); test: IKK2 assay (TR-FRET); format: biochemical; conditions: ATP 1 μM final, read-out: pIC50 against IKK2 (converted)
T1 construct: Recombinant human IKKβ (residues 1-737); GST (C); made in house
T1 sequence (O14920 1-737): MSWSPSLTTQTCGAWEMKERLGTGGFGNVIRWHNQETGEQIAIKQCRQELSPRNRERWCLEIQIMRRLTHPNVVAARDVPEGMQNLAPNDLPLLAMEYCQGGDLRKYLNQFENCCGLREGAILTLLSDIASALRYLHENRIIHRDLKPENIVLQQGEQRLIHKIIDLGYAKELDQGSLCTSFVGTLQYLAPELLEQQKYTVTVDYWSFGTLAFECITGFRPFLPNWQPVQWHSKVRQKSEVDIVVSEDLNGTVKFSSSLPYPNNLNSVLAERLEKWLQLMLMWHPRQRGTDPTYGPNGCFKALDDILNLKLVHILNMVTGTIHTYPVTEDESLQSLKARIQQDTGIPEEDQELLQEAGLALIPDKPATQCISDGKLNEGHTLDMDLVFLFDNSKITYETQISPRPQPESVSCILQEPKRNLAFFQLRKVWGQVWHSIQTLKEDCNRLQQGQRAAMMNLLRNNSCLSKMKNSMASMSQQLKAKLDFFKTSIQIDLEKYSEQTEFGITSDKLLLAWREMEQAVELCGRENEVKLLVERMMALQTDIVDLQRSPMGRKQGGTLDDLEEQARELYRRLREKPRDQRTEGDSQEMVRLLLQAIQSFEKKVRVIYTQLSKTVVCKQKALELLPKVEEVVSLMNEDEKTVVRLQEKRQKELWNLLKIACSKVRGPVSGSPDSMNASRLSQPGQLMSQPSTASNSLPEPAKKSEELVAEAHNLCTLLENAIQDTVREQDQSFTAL
Procedure, shortened: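 Baculovirus-expressed C-terminal GST-tagged IKKβ (0.5-5 nM final) in HEPES pH 7.4, MgCl2, CHAPS, DTT, BSA with 1.7% DMSO; 25 nM GST-IB substrate and 1 μM ATP, 15 min at room temperature. EDTA stop; phospho-Ser32/36 detected by Eu-antibody/APC-anti-GST TR-FRET, 665/620 nm ratio.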

Row | SMILES | inhibition at 0.3 µM [1] [%] | IC50 [2] [µM] | IC50 [1] [nM]
1 | CCS(=O)(=O)N1CCC(c2c[nH]c3c(C(N)=O)cc(-c4csc(CN(C)C5CCS(=O)(=O)C5)c4)cc23)CC1 (stereo not shown) [Example 436, 5-(5-{[(1,1-dioxidotetrahydro-3-thienyl)(methyl)amino]methyl}-3-thienyl)-3-[1-(ethylsulfonyl)-4-piperidinyl]-1H-indole-7-carboxamide trifluoroacetate] | 0 to 60 | ≤ 10 | –
2 | CCS(=O)(=O)N1CCC(c2c[nH]c3c(C(N)=O)cc(-c4cc(F)cc(CNC[C@H]5CCCO5)c4)cc23)CC1 [Example 313, 3-[1-(ethylsulfonyl)-4-piperidinyl]-5-[3-fluoro-5-({[(2R)-tetrahydro-2-furanylmethyl]amino}methyl)phenyl]-1H-indole-7-carboxamide trifluoroacetate] | – | ≤ 10 | ≤ 1500
3 | CCN(C)Cc1cc(-c2cc(C(N)=O)c3[nH]cc(C4CCN(S(=O)(=O)CC)CC4)c3c2)cs1 [Example 65, 5-(5-{[ethyl(methyl)amino]methyl}-3-thienyl)-3-[1-(ethylsulfonyl)-4-piperidinyl]-1H-indole-7-carboxamide trifluoroacetate] | – | ≤ 10 | ≤ 1500
4 | CCOCCNCc1ccc(-c2cc(C(N)=O)c3[nH]cc(C4CCN(S(=O)(=O)CC)CC4)c3c2)s1 [Example 197, 5-[5-({[2-(ethyloxy)ethyl]amino}methyl)-2-thienyl]-3-[1-(ethylsulfonyl)-4-piperidinyl]-1H-indole-7-carboxamide] | – | ≤ 10 | > 1000
5 | CCS(=O)(=O)N1CCC(c2c[nH]c3c(C(N)=O)cc(-c4cc(CNCCOC)ccc4F)cc23)CC1 [Example 342, 3-[1-(ethylsulfonyl)-4-piperidinyl]-5-[2-fluoro-5-({[2-(methyloxy)ethyl]amino}methyl)phenyl]-1H-indole-7-carboxamide trifluoroacetate] | – | ≤ 10 | ≤ 1500
6 | CCCNCc1ccc(-c2cc(C(N)=O)c3[nH]cc(C4CCN(S(=O)(=O)CC)CC4)c3c2)cc1 [Example 141, 3-[1-(ethylsulfonyl)-4-piperidinyl]-5-{4-[(propylamino)methyl]phenyl}-1H-indole-7-carboxamide trifluoroacetate] | – | ≤ 10 | ≤ 1500
7 | CC(C)S(=O)(=O)N1CCC(c2c[nH]c3c(C(N)=O)cc(-c4csc(CN(C)C5CCCC5)c4)cc23)CC1 [Example 396, 5-(5-{[cyclopentyl(methyl)amino]methyl}-3-thienyl)-3-{1-[(1-methylethyl)sulfonyl]-4-piperidinyl}-1H-indole-7-carboxamide] | – | ≤ 10 | ≤ 1500
8 | CCS(=O)(=O)N1CCC(c2c[nH]c3c(C(N)=O)cc(-c4nc(CN5CCCC5)cs4)cc23)CC1 [Example 251, 3-[1-(ethylsulfonyl)-4-piperidinyl]-5-[4-(1-pyrrolidinylmethyl)-1,3-thiazol-2-yl]-1H-indole-7-carboxamide trifluoroacetate] | – | ≤ 10 | ≤ 1500
9 | CCS(=O)(=O)N1CCC(c2c[nH]c3c(C(N)=O)cc(-c4csc(CN(C)CC5CCN(C(C)C)C5)c4)cc23)CC1 (stereo not shown) [Example 79, 3-[1-(ethylsulfonyl)-4-piperidinyl]-5-{5-[(methyl{[1-(1-methylethyl)-3-pyrrolidinyl]methyl}amino)methyl]-3-thienyl}-1H-indole-7-carboxamide trifluoroacetate] | 0 to 60 | ≤ 10 | –
10 | CCC(C)CNCc1cc(F)cc(-c2cc(C(N)=O)c3[nH]cc(C4CCN(S(=O)(=O)CC)CC4)c3c2)c1 (stereo not shown) [Example 319, 3-[1-(ethylsulfonyl)-4-piperidinyl]-5-(3-fluoro-5-{[(2-methylbutyl)amino]methyl}phenyl)-1H-indole-7-carboxamide trifluoroacetate] | – | ≤ 10 | ≤ 1500
11 | CCS(=O)(=O)N1CCC(c2c[nH]c3c(C(N)=O)cc(-c4cncc(CNC(C)C)c4)cc23)CC1 [Example 191, 3-[1-(ethylsulfonyl)-4-piperidinyl]-5-(5-{[(1-methylethyl)amino]methyl}-3-pyridinyl)-1H-indole-7-carboxamide] | – | ≤ 10 | ≤ 1500
12 | CCCCN(C)Cc1cc(-c2cc(C(N)=O)c3[nH]cc(C4CCN(S(=O)(=O)CC)CC4)c3c2)cs1 [Example 67, 5-(5-{[butyl(methyl)amino]methyl}-3-thienyl)-3-[1-(ethylsulfonyl)-4-piperidinyl]-1H-indole-7-carboxamide trifluoroacetate] | – | ≤ 10 | ≤ 1500
13 | CCS(=O)(=O)N1CCC(c2c[nH]c3c(C(N)=O)cc(-c4csc(CN(C)C5CCCC5)c4)cc23)CC1 [Example 71, 5-(5-{[cyclopentyl(methyl)amino]methyl}-3-thienyl)-3-[1-(ethylsulfonyl)-4-piperidinyl]-1H-indole-7-carboxamide trifluoroacetate] | – | ≤ 10 | ≤ 1500
14 | CCCNCc1cc(-c2cc(C(N)=O)c3[nH]cc(C4CCN(S(=O)(=O)CC)CC4)c3c2)cs1 [Example 106, 3-[1-(ethylsulfonyl)-4-piperidinyl]-5-{5-[(propylamino)methyl]-3-thienyl}-1H-indole-7-carboxamide trifluoroacetate] | – | ≤ 10 | ≤ 1500
15 | CCCC1CCCN1Cc1cc(-c2cc(C(N)=O)c3[nH]cc(C4CCN(S(=O)(=O)CC)CC4)c3c2)cs1 (stereo not shown) [Example 89, 3-[1-(ethylsulfonyl)-4-piperidinyl]-5-{5-[(2-propyl-1-pyrrolidinyl)methyl]-3-thienyl}-1H-indole-7-carboxamide] | – | ≤ 10 | ≤ 1500
16 | CCS(=O)(=O)N1CCC(c2c[nH]c3c(C(N)=O)cc(-c4ccc(CNC5CC5)s4)cc23)CC1 [Example 170, 5-{5-[(cyclopropylamino)methyl]-2-thienyl}-3-[1-(ethylsulfonyl)-4-piperidinyl]-1H-indole-7-carboxamide] | – | ≤ 10 | ≤ 1500
17 | CCS(=O)(=O)N1CCC(c2c[nH]c3c(C(N)=O)cc(-c4ccc5c(c4)CNC5)cc23)CC1 [Example 418, 5-(2,3-dihydro-1H-isoindol-5-yl)-3-[1-(ethylsulfonyl)-4-piperidinyl]-1H-indole-7-carboxamide] | – | ≤ 10 | ≤ 1500
18 | CCS(=O)(=O)N1CCC(c2c[nH]c3c(C(N)=O)cc(-c4csc(C(C)N5CCCC5)c4)cc23)CC1 (stereo not shown) [Example 238, 3-[1-(ethylsulfonyl)-4-piperidinyl]-5-{5-[1-(1-pyrrolidinyl)ethyl]-3-thienyl}-1H-indole-7-carboxamide trifluoroacetate] | – | ≤ 10 | ≤ 1500
19 | CCS(=O)(=O)N1CCC(c2c[nH]c3c(C(N)=O)cc(-c4cccc(CNC(C)CO)c4)cc23)CC1 (stereo not shown) [Example 19, 3-[1-(ethylsulfonyl)-4-piperidinyl]-5-(3-{[(2-hydroxy-1-methylethyl)amino]methyl}phenyl)-1H-indole-7-carboxamide] | – | ≤ 10 | ≤ 1500
20 | CCS(=O)(=O)N1CCC(c2c[nH]c3c(C(N)=O)cc(-c4cncc(CNCCC#N)c4)cc23)CC1 [Example 62, 5-(5-{[(2-cyanoethyl)amino]methyl}-3-pyridinyl)-3-[1-(ethylsulfonyl)-4-piperidinyl]-1H-indole-7-carboxamide] | – | ≤ 10 | ≤ 1500
21 | CCS(=O)(=O)N1CCC(c2c[nH]c3c(C(N)=O)cc(-c4cccc(CN5CCCC5c5nccs5)c4)cc23)CC1 (stereo not shown) [Example 10, 3-[1-(ethylsulfonyl)-4-piperidinyl]-5-(3-{[2-(1,3-thiazol-2-yl)-1-pyrrolidinyl]methyl}phenyl)-1H-indole-7-carboxamide] | – | ≤ 10 | ≤ 1500
22 | CCS(=O)(=O)N1CCC(c2c[nH]c3c(C(N)=O)cc(-c4cc(CN5[C@H](C)CC[C@H]5C)cs4)cc23)CC1 [Example 216, 5-(4-{[(2R,5R)-2,5-dimethyl-1-pyrrolidinyl]methyl}-2-thienyl)-3-[1-(ethylsulfonyl)-4-piperidinyl]-1H-indole-7-carboxamide trifluoroacetate] | – | ≤ 10 | ≤ 1500
23 | CCS(=O)(=O)N1CCC(c2c[nH]c3c(C(N)=O)cc(-c4csc(CCN(C)C)c4)cc23)CC1 [Example 223, 5-{5-[2-(dimethylamino)ethyl]-3-thienyl}-3-[1-(ethylsulfonyl)-4-piperidinyl]-1H-indole-7-carboxamide trifluoroacetate] | – | ≤ 10 | ≤ 1500
